Test results published in ChEMBL document CHEMBL3991601, “The target landscape of clinical kinase drugs” (Science, 2017).
Active and inactive are the calls of the source. For most assays here, no stated cut-off is given here; in the data, actives have a measured Kd and inactives only a lower limit.

What was measured:
[1] = target: Cyclin-dependent kinase 5 (Homo sapiens, UniProt Q00535)
Wee1-like protein kinase = Wee1-like protein kinase (Homo sapiens, UniProt P30291)
[2] = target: T1, Tyrosine-protein kinase Tec (Homo sapiens, UniProt P42680)
T1 sequence (P42680 whole entry): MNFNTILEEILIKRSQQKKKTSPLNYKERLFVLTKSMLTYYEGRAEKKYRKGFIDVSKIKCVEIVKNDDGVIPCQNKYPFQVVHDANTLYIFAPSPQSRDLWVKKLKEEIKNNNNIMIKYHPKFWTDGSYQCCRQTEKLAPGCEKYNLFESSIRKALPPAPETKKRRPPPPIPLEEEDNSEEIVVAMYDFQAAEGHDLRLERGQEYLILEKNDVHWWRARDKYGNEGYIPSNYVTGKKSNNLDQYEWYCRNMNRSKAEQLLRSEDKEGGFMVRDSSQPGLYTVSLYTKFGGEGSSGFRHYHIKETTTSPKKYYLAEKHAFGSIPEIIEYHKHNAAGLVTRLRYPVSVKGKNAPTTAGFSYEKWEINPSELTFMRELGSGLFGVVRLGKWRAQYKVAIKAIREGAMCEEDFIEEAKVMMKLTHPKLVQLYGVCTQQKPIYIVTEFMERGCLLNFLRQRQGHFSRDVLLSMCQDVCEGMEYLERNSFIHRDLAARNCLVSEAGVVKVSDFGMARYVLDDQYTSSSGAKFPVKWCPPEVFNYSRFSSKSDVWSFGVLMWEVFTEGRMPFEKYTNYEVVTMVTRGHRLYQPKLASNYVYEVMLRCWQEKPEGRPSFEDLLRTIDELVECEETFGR

Glycine--tRNA ligase = target: T2, Glycine--tRNA ligase (Homo sapiens, UniProt P41250)
T2 sequence (P41250 whole entry): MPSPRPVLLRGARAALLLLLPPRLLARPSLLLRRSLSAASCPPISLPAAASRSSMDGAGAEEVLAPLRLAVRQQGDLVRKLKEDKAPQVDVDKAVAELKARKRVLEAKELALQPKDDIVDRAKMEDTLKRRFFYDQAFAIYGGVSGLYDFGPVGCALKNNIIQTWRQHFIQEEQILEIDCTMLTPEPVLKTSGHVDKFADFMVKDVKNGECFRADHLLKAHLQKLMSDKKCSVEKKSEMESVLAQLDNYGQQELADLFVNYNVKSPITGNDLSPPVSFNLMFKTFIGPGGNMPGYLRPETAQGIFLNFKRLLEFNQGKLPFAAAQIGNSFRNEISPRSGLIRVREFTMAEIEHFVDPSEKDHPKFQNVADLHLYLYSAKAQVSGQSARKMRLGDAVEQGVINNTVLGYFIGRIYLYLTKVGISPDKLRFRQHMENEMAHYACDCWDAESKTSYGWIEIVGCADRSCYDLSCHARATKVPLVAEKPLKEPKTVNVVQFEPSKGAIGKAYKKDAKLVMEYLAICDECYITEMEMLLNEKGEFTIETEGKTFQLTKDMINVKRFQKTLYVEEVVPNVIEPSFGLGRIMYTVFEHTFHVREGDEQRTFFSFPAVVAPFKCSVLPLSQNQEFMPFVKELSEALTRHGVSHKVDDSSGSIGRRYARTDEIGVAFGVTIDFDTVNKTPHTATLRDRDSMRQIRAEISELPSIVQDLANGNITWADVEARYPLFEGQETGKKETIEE

[3] = target: T3, Succinate--CoA ligase [ADP-forming] subunit beta, mitochondrial (Homo sapiens, UniProt Q9P2R7)
T3 sequence (Q9P2R7 whole entry): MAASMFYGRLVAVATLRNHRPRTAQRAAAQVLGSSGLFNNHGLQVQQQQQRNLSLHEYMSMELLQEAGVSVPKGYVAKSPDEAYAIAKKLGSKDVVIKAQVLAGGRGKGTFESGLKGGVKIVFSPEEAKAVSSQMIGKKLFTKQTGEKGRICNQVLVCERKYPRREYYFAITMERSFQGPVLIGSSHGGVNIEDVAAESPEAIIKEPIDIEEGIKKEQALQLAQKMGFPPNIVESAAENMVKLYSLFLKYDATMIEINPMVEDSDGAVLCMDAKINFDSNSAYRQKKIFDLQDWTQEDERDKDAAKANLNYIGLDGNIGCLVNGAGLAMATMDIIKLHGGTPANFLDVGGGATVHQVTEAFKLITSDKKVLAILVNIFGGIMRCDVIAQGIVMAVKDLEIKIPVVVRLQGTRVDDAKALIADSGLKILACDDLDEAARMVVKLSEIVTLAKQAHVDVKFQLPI

[4] = target: Casein kinase II subunit alpha' (Homo sapiens, UniProt P19784)
Sequence of Casein kinase II subunit alpha' (P19784 whole entry): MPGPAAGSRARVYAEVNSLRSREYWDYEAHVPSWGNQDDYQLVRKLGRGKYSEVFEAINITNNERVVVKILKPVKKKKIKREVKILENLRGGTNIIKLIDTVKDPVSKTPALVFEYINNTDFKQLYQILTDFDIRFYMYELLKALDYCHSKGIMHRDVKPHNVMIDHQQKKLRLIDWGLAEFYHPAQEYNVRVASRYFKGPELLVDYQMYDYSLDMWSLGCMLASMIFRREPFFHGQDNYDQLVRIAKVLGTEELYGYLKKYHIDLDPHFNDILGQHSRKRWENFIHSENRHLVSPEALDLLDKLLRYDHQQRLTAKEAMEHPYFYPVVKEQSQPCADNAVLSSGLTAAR

[5] = target: T4, Serine/threonine-protein kinase D3 (Homo sapiens, UniProt O94806)
T4 sequence (O94806 whole entry): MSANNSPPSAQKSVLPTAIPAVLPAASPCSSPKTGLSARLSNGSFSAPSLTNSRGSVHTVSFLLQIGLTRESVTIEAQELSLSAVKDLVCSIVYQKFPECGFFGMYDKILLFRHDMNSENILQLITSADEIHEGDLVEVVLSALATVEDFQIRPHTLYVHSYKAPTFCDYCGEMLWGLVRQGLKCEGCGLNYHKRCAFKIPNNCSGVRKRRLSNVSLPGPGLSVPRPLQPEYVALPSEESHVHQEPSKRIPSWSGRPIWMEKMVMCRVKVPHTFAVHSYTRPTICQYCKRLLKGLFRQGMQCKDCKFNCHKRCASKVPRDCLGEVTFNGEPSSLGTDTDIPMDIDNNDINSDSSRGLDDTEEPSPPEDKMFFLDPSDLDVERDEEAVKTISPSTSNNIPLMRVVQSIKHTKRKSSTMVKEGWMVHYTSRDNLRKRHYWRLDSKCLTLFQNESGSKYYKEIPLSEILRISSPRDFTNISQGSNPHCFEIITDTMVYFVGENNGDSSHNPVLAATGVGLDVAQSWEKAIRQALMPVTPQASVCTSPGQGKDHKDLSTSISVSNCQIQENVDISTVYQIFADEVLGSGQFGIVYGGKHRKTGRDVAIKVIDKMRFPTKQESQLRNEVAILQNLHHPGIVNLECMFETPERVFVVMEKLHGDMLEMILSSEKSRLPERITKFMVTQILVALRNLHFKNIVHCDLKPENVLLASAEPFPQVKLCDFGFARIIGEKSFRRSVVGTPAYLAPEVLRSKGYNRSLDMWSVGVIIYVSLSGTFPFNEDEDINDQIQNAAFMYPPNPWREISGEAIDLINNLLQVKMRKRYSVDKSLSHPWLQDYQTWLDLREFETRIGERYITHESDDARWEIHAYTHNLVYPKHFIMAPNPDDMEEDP

Sequence of Wee1-like protein kinase (P30291 whole entry): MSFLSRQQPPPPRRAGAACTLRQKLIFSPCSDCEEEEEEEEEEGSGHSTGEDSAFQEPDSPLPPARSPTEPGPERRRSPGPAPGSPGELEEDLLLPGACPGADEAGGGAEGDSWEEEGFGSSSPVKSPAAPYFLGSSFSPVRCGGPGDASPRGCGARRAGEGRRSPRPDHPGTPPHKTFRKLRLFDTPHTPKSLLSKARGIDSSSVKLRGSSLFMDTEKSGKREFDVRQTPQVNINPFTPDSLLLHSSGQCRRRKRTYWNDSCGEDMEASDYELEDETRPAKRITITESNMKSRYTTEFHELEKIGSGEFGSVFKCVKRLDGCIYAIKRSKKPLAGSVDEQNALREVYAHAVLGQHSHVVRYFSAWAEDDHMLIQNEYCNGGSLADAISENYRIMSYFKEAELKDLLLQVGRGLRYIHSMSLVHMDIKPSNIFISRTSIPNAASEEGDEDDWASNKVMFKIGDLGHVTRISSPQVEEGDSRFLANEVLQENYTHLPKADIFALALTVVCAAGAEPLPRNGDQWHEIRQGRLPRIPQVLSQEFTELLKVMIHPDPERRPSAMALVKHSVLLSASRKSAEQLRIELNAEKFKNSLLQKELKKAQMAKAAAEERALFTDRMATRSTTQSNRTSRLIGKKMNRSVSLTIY
Sequence of Cyclin-dependent kinase 5 (Q00535 whole entry): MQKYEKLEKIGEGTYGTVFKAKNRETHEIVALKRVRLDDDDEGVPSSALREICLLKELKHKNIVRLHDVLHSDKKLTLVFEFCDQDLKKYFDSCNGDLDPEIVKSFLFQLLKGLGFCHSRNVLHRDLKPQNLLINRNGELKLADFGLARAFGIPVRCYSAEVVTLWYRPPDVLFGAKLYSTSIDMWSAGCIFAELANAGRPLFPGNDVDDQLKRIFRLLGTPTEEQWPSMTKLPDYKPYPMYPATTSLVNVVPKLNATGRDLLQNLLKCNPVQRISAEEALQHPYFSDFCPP

Structure (SMILES) | Kd [1] | Kd (Wee1-like protein kinase) | Kd [2] | Kd (Glycine--tRNA ligase) | Kd [3] | Kd [4] | Kd [5]
O=C(NC[C@H](O)CO)c1ccncc1Nc1ccc(I)cc1F [PIMASERTIB] | > 30 µM (inactive) | > 30 µM (inactive) | > 30 µM (inactive) | > 30 µM (inactive) | > 30 µM (inactive) | > 30 µM (inactive) | > 30 µM (inactive)
O=C(NOC[C@H](O)CO)c1ccc(F)c(F)c1Nc1ccc(I)cc1F [MIRDAMETINIB] | > 30 µM (inactive) | > 30 µM (inactive) | > 30 µM (inactive) | > 30 µM (inactive) |  | > 30 µM (inactive) | > 30 µM (inactive)
COc1cc(Nc2ncc(F)c(Nc3ccc4c(n3)N(COP(=O)(O)O)C(=O)C(C)(C)O4)n2)cc(OC)c1OC [FOSTAMATINIB] | > 30 µM (inactive) | > 30 µM (inactive) | > 30 µM (inactive) | > 30 µM (inactive) | > 30 µM (inactive) | > 30 µM (inactive) | > 30 µM (inactive)
Cc1cc(Nc2nc(N[C@@H](C)c3ncc(F)cn3)ncc2Cl)n[nH]1 [AZD-1480] | > 30 µM (inactive) | > 30 µM (inactive) | > 30 µM (inactive) | > 30 µM (inactive) |  | 3.96 µM (active) | > 30 µM (inactive)
O=S(=O)(c1cccc2c(O)nccc12)N1CCCNCC1 [HYDROXYFASUDIL] | > 30 µM (inactive) |  | > 30 µM (inactive) | > 30 µM (inactive) | > 30 µM (inactive) | > 30 µM (inactive) | > 30 µM (inactive)
CCN1CCN(Cc2ccc(Nc3ncc(F)c(-c4cc(F)c5nc(C)n(C(C)C)c5c4)n3)nc2)CC1 [ABEMACICLIB] |  | > 30 µM (inactive) | > 30 µM (inactive) | > 30 µM (inactive) | > 30 µM (inactive) | 0.019 µM (active) | 1.84 µM (active)
CC1(COc2ccc3c(c2)ncn3-c2ccc3cccc(N4CCC(N)CC4)c3n2)COC1 [CRENOLANIB] |  | > 30 µM (inactive) | > 30 µM (inactive) |  | 0.007 µM | > 30 µM (inactive) | 14.8 µM (active)
CNC(=O)c1ccc(Nc2ncc(C(F)(F)F)c(NCc3nccnc3N(C)S(C)(=O)=O)n2)cc1 [DEFACTINIB] | 1.41 µM (active) |  | > 30 µM (inactive) | > 30 µM (inactive) | > 30 µM (inactive) | 1.2 µM (active) | > 30 µM (inactive)

Other lines, results leading:

Kd [1] | Kd (Wee1-like protein kinase) | Kd [2] | Kd (Glycine--tRNA ligase) | Kd [3] | Kd [4] | Kd [5] | Structure (SMILES)
> 30 µM (inactive) | > 30 µM (inactive) | > 30 µM (inactive) | > 30 µM (inactive) |  | > 30 µM (inactive) | > 30 µM (inactive) | O=C(Nc1ccc(OC(F)(F)F)cc1)c1sccc1NCc1ccnc2ccccc12 [OSI-930]
> 30 µM (inactive) | > 30 µM (inactive) | > 30 µM (inactive) | > 30 µM (inactive) | > 30 µM (inactive) | > 30 µM (inactive) | > 30 µM (inactive) | CNC(=O)c1cc(COc2nnc(Nc3ccc(Cl)cc3)c3ccoc23)ccn1 [TELATINIB]
> 30 µM (inactive) | > 30 µM (inactive) | > 30 µM (inactive) | > 30 µM (inactive) | > 30 µM (inactive) | 8.49 µM (active) | > 30 µM (inactive) | COc1ccc(-c2ccc3ncc4c(c3c2)n(-c2ccc(N3CCNCC3)c(C(F)(F)F)c2)c(=O)n4C)cn1 [BGT-226 FREE BASE]
> 30 µM (inactive) | > 30 µM (inactive) | > 30 µM (inactive) | > 30 µM (inactive) | > 30 µM (inactive) | > 30 µM (inactive) | > 30 µM (inactive) | FC(F)(F)c1ccc(CNc2ccc(Cc3c[nH]c4ncc(Cl)cc34)cn2)cn1 [PEXIDARTINIB]
> 30 µM (inactive) | > 30 µM (inactive) | > 30 µM (inactive) | > 30 µM (inactive) | > 30 µM (inactive) | > 30 µM (inactive) | > 30 µM (inactive) | S=C(NCc1ccc2c(c1)OCO2)N1CCN(c2ncnc3c2oc2ccccc23)CC1 [AMUVATINIB]
> 30 µM (inactive) | > 30 µM (inactive) | 0.288 µM (active) | > 30 µM (inactive) | > 30 µM (inactive) | > 30 µM (inactive) | > 30 µM (inactive) | C=CC(=O)Nc1cccc(Nc2nc(Nc3ccc(N4CCN(C(C)=O)CC4)cc3OC)ncc2C(F)(F)F)c1 [ROCILETINIB]
> 30 µM (inactive) | > 30 µM (inactive) | > 30 µM (inactive) | > 30 µM (inactive) | > 30 µM (inactive) | > 30 µM (inactive) | > 30 µM (inactive) | C[C@@H]1COC(Nc2ccc3ncnc(Nc4ccc(OCc5nccs5)c(Cl)c4)c3c2)=N1 [VARLITINIB]
0.514 µM (active) | > 30 µM (inactive) | > 30 µM (inactive) | > 30 µM (inactive) | > 30 µM (inactive) |  | > 30 µM (inactive) | O=C(O)c1ccc2c(c1)nc(Nc1cccc(Cl)c1)c1ccncc12 [SILMITASERTIB]
> 30 µM (inactive) | > 30 µM (inactive) | > 30 µM (inactive) | > 30 µM (inactive) | > 30 µM (inactive) |  | 0.493 µM (active) | COc1cccc(Nc2ncnn3ccc(CN4CC[C@@H](N)[C@H](O)C4)c23)c1 [BMS-690514]
> 30 µM (inactive) | > 30 µM (inactive) | > 30 µM (inactive) | > 30 µM (inactive) |  | > 30 µM (inactive) | > 30 µM (inactive) | Cc1cc(-c2cc(OC(=O)c3ccccc3)ccc2Cl)cc2nnc(Nc3ccc(OCCN4CCCC4)cc3)nc12 [TG100-801]
> 30 µM (inactive) | > 30 µM (inactive) | > 30 µM (inactive) | > 30 µM (inactive) |  | 0.584 µM (active) | 0.09 µM (active) | c1cc(OCCN2CCCCC2)cc(-c2n[nH]c3ccc(-c4nc[nH]n4)cc23)c1 [CC-401]
